Measured values taken from ChEMBL document CHEMBL3826960, “Robust design of some selective matrix metalloproteinase-2 inhibitors over matrix metalloproteinase-9 through in silico/fragment-based lead identification and de novo lead modification: Syntheses and biological assays” (Bioorg Med Chem, 2016).
pIC50: −log10 of the molar value.

Legend:
[1] = biological target: Matrix metalloproteinase-9 (Homo sapiens, UniProt P14780)
Description: Inhibition of human recombinant MMP9 by colorimetric analysis

A549 [2] = experiment: cells; type: functional; conditions: Homo sapiens, A549, 48 h
Description: Cytotoxicity against human A549 cells assessed as cell viability at 100 uM after 48 hrs by MTT assay

Interstitial collagenase = biological target: T1, Interstitial collagenase (Homo sapiens, UniProt P03956)
T1 sequence (P03956 whole entry): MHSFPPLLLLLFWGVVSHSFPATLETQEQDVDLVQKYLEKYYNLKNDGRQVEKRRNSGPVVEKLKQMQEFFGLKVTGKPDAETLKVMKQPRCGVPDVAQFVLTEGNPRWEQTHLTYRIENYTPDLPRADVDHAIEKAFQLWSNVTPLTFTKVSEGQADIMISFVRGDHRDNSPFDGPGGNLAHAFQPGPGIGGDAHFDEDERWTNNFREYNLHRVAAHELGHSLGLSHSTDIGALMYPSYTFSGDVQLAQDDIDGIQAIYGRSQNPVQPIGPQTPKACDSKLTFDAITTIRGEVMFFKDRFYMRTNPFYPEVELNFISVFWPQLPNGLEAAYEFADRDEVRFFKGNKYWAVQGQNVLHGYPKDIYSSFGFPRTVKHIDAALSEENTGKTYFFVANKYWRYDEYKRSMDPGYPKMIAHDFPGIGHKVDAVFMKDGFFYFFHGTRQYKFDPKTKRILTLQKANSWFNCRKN
Description: Inhibition of human recombinant MMP1 by colorimetric analysis

A549 [3] = experiment: cells; type: functional; conditions: Homo sapiens, A549, 48 h; remark: listed apart in the source
A549 [4] = experiment: cells; type: functional; conditions: Homo sapiens, A549, 24 h
Description: Reduction of MMP2 expression in human A549 cells at 50 uM after 24 hrs by confocal microsocopy

A549 [5] = experiment: cells; type: functional; conditions: Homo sapiens, A549, 48 h; remark: listed apart in the source
Description: Cytotoxicity against human A549 cells assessed as cell viability at 300 uM after 48 hrs by MTT assay

[6] = biological target: Macrophage metalloelastase (Homo sapiens, UniProt P39900)
Description: Inhibition of human recombinant MMP12 by colorimetric analysis

A549 [7] = experiment: cells; type: functional; conditions: Homo sapiens, A549, 48 h; remark: listed apart in the source
Neutrophil collagenase = Neutrophil collagenase (Homo sapiens, UniProt P22894)
Description: Inhibition of human recombinant MMP8 by colorimetric analysis

[8] = biological target: Matrix metalloproteinase-14 (Homo sapiens, UniProt P50281)
Description: Inhibition of human recombinant MMP14 by colorimetric analysis

A549 [9] = experiment: cells; type: functional, cell-based; conditions: Homo sapiens, A549, 48 h
Description: Cytotoxicity against human A549 cells assessed as cell viability after 48 hrs by MTT assay

Macrophage metalloelastase, sequence (P39900 whole entry): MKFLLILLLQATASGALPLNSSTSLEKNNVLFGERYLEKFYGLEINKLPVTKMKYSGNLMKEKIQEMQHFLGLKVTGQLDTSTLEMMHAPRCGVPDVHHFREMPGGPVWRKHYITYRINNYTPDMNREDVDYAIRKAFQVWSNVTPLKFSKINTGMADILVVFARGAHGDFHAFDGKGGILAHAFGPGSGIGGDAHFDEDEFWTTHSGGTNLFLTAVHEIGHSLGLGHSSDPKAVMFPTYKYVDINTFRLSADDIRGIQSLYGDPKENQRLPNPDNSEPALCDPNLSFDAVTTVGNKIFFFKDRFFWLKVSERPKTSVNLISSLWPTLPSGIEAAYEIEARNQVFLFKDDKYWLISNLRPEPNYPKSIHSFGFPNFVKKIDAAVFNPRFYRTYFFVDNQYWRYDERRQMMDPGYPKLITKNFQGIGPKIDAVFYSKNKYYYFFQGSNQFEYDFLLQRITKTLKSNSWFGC
Neutrophil collagenase, sequence (P22894 whole entry): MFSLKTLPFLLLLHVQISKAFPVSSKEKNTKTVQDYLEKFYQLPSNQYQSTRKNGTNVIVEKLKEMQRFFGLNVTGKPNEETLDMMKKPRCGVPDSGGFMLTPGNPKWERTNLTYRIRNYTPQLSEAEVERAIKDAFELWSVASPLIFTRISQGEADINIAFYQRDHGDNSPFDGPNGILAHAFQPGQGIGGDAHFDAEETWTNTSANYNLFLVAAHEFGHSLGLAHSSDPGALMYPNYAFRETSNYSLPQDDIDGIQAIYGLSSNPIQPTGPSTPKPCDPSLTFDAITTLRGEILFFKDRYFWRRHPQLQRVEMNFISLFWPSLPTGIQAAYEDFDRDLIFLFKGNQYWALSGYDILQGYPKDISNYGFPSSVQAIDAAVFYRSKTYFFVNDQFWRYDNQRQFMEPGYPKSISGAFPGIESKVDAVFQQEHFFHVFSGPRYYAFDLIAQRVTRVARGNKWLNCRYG
Matrix metalloproteinase-9, sequence (P14780 whole entry): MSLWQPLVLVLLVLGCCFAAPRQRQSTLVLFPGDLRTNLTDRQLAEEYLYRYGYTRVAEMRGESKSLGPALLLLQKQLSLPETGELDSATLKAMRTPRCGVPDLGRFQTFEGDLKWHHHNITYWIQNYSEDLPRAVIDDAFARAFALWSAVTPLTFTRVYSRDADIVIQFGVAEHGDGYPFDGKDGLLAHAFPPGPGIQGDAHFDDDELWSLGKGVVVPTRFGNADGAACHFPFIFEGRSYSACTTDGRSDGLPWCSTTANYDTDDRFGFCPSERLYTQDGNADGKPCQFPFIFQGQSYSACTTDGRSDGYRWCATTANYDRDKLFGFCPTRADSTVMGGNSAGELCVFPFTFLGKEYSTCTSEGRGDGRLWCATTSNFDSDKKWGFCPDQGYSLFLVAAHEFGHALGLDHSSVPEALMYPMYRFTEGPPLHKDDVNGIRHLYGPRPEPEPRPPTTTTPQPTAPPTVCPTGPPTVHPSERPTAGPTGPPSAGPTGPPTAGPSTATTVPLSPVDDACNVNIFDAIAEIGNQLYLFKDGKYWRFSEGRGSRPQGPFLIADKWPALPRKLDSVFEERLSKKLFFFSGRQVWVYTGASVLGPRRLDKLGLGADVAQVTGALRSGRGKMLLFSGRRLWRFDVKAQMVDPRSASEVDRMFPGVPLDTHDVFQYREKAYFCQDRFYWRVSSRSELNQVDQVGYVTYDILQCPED

Structure (SMILES)	pIC50 [1]	viability at 100 µM (A549 [2]) [%]	pIC50 (Interstitial collagenase)	viability at 100 µM (A549 [3]) [%]	inhibition at 50 µM (A549 [4]) [%]	viability at 300 µM (A549 [5]) [%]	pIC50 [6]	viability at 200 µM (A549 [7]) [%]	pIC50 (Neutrophil collagenase)	pIC50 [8]	pIC50 (A549 [9])
CCCCCNC(=O)CC[C@H](NS(=O)(=O)c1ccc(-c2ccc(Br)cc2)cc1)C(=O)O	5.26										
O=C(CC[C@H](NS(=O)(=O)c1ccc(-c2ccccc2)cc1)C(=O)O)NCc1ccc(Cl)cc1	5.68										
O=C(CC[C@H](NS(=O)(=O)c1ccc(-c2ccccc2)cc1)C(=O)O)NCc1ccccc1	6.31	80	< 5.00	98.3	≤ 60.5	66	7.27	95.8	7.67	6.37	
CCCCCNC(=O)CC[C@H](NS(=O)(=O)c1ccc(-c2ccccc2)cc1)C(=O)O	5.24	80	< 5.00		≤ 52.1	61	7.28		7.23	6.00	
O=C(CC[C@H](NS(=O)(=O)c1ccc(-c2ccc(Br)cc2)cc1)C(=O)O)NCc1ccccc1	5.22										
O=C(CC[C@H](NS(=O)(=O)c1ccc(-c2ccccc2)cc1)C(=O)O)NCc1ccccc1Cl	6.06	80	< 5.00			68	7.20		7.41	5.79	
CCCCNC(=O)CC[C@H](NS(=O)(=O)c1ccc(-c2ccccc2)cc1)C(=O)O	6.15	80	< 5.00			59	7.15		7.22	5.33	
CCCNC(=O)CC[C@H](NS(=O)(=O)c1ccc(-c2ccccc2)cc1)C(=O)O	4.95		< 5.00						7.34	5.11	
CCCCCCNC(=O)CC[C@H](NS(=O)(=O)c1ccc(-c2ccccc2)cc1)C(=O)O	5.23	80	< 5.00			65	7.02		7.09	6.09	
O=C(CC[C@H](NS(=O)(=O)c1ccc(-c2ccccc2)cc1)C(=O)O)NC1CCCCC1	6.20	80	< 5.00			70	7.14		7.19	5.62	
CC(C)CNC(=O)CC[C@H](NS(=O)(=O)c1ccc(-c2ccccc2)cc1)C(=O)O	5.09	80	< 5.00			79	6.61		6.65	5.06	
O=C(CC[C@H](NS(=O)(=O)c1ccc(-c2ccccc2)cc1)C(=O)O)NCc1cc(C(F)(F)F)cc(C(F)(F)F)c1	5.17	80	< 5.00	98.5	≤ 78.9	43	6.34	96.1	6.64	5.20	3.57
O=C(CC[C@H](NS(=O)(=O)c1ccc(-c2ccccc2)cc1)C(=O)O)Nc1ccccc1	5.37	80	< 5.00			78	6.53		7.25	5.86	
CC(C)NC(=O)CC[C@H](NS(=O)(=O)c1ccc(-c2ccccc2)cc1)C(=O)O	5.13										
NC(=O)CC[C@H](NS(=O)(=O)c1ccc(-c2ccccc2)cc1)C(=O)O	5.13										
O=C(CC[C@H](NS(=O)(=O)c1ccc(-c2ccccc2)cc1)C(=O)O)NCCc1ccccc1	5.15		< 5.00				6.53		6.98	5.16	
CNC(=O)CC[C@H](NS(=O)(=O)c1ccc(-c2ccccc2)cc1)C(=O)O	4.42										
O=C(CC[C@H](NS(=O)(=O)c1ccc(-c2ccccc2)cc1)C(=O)O)NCc1ccc(F)cc1	5.94	80	< 5.00			85	7.08		7.33	5.27	
COc1ccc(CNC(=O)CC[C@H](NS(=O)(=O)c2ccc(-c3ccccc3)cc2)C(=O)O)cc1	5.74										
CCNC(=O)CC[C@H](NS(=O)(=O)c1ccc(-c2ccccc2)cc1)C(=O)O	5.06										
CC(C)(C)NC(=O)CC[C@H](NS(=O)(=O)c1ccc(-c2ccccc2)cc1)C(=O)O	5.07										
